Measurements as given in the supplement of paper PMC10307832.

Columns and labels:
Experiment in all cases: relative viability (nuclei count vs DMSO), 5 days (fraction); higher = more cells survive
NCI-H1651 = system: NCI-H1651
Outline: (§1)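 Relative viability is defined as nuclei in treated wells over nuclei in vehicle wells. Duplicate plates were run and medians reported. Lung cancer cell lines in 1536-well plates were dosed by pin tool one day after seeding, with one drug or with a fixed anchor-drug dose plus five library-drug doses (not always all listed) in √10 steps, and nuclei were counted after 5 days.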

NCI-H1355 = system: NCI-H1355
Outline: as §1

LOU-NH91 = system: LOU-NH91
Outline: as §1

201T = system: 201T
Outline: as §1

NCI-H322M = system: NCI-H322M
Outline: as §1

NCI-H1395 = system: NCI-H1395
Outline: as §1

HOP-62 = system: HOP-62
Outline: as §1

NCI-H650 = system: NCI-H650
Outline: as §1

NCI-H1563 = system: NCI-H1563
Outline: as §1

BEN = system: BEN
Outline: as §1

NCI-H1944 = system: NCI-H1944
Outline: as §1

NCI-H1793 = conditions: first compound 0.2 µM
Outline: as §1

Work on `Cc1csc(=NC2CCCCC2)n1/N=C/c1ccc(O)c(O)c1O` [MIM1] + COc1cccc2cc(-c3nc([C@H]4CC[C@H](C(=O)O)CC4)n4ncnc(N)c34)[nH]c12 [OSI-027] (partner 0.5 µM) yielded a relative viability (NCI-H1651; first compound 0.2 µM) of 0.745, a relative viability (NCI-H1651; first compound 0.6325 µM) of 0.806 and a relative viability (NCI-H1651; first compound 2 µM) of 0.63. For the same compound, the relative viability (NCI-H1651; first compound 6.325 µM) was 0.611, the relative viability (NCI-H1651; first compound 20 µM) was 0.612 and the relative viability (NCI-H1355; first compound 0.2 µM) was 0.409. For the same compound, the relative viability (NCI-H1355; first compound 0.6325 µM) was 0.366, the relative viability (NCI-H1355; first compound 2 µM) was 0.399 and the relative viability (NCI-H1355; first compound 6.325 µM) was 0.372. For the same compound, the relative viability (NCI-H1355; first compound 20 µM) was 0.253, the relative viability (LOU-NH91; first compound 0.2 µM) was 0.721 and the relative viability (LOU-NH91; first compound 0.6325 µM) was 0.692. For the same compound, the relative viability (LOU-NH91; first compound 2 µM) was 0.64, the relative viability (LOU-NH91; first compound 6.325 µM) was 0.694 and the relative viability (LOU-NH91; first compound 20 µM) was 0.635. For the same compound, the relative viability (201T; first compound 0.2 µM) was 0.739, the relative viability (201T; first compound 0.6325 µM) was 0.834 and the relative viability (201T; first compound 2 µM) was 0.745. For the same compound, the relative viability (201T; first compound 6.325 µM) was 0.478, the relative viability (201T; first compound 20 µM) was 0.272 and the relative viability (NCI-H322M; first compound 0.2 µM) was 0.593. For the same compound, the relative viability (NCI-H322M; first compound 0.6325 µM) was 0.526, the relative viability (NCI-H322M; first compound 2 µM) was 0.543 and the relative viability (NCI-H322M; first compound 6.325 µM) was 0.508. The relative viability (NCI-H322M; first compound 20 µM) was 0.288, the relative viability (NCI-H1395; first compound 0.2 µM) was 0.592 and the relative viability (NCI-H1395; first compound 0.6325 µM) was 0.63. For the same compound, the relative viability (NCI-H1395; first compound 2 µM) was 0.618, the relative viability (NCI-H1395; first compound 6.325 µM) was 0.508 and the relative viability (NCI-H1395; first compound 20 µM) was 0.374. It also gave a relative viability (HOP-62; first compound 0.2 µM) of 0.848, a relative viability (HOP-62; first compound 0.6325 µM) of 0.912 and a relative viability (HOP-62; first compound 2 µM) of 0.789. For the same compound, the relative viability (HOP-62; first compound 6.325 µM) was 0.666, the relative viability (HOP-62; first compound 20 µM) was 0.19 and the relative viability (NCI-H650; first compound 0.2 µM) was 0.563. It also gave a relative viability (NCI-H650; first compound 0.6325 µM) of 0.414, a relative viability (NCI-H650; first compound 2 µM) of 0.484 and a relative viability (NCI-H650; first compound 6.325 µM) of 0.533. For the same compound, the relative viability (NCI-H650; first compound 20 µM) was 0.36, the relative viability (NCI-H1563; first compound 0.2 µM) was 0.725 and the relative viability (NCI-H1563; first compound 0.6325 µM) was 0.821. The relative viability (NCI-H1563; first compound 2 µM) was 0.688, the relative viability (NCI-H1563; first compound 6.325 µM) was 0.72 and the relative viability (NCI-H1563; first compound 20 µM) was 0.525. The relative viability (BEN; first compound 0.2 µM) was 0.309, the relative viability (BEN; first compound 0.6325 µM) was 0.315 and the relative viability (BEN; first compound 2 µM) was 0.28. For the same compound, the relative viability (BEN; first compound 6.325 µM) was 0.318, the relative viability (BEN; first compound 20 µM) was 0.298 and the relative viability (NCI-H1944; first compound 0.2 µM) was 0.441. For the same compound, the relative viability (NCI-H1944; first compound 0.6325 µM) was 0.44, the relative viability (NCI-H1944; first compound 2 µM) was 0.334 and the relative viability (NCI-H1944; first compound 6.325 µM) was 0.365. It also gave a relative viability (NCI-H1944; first compound 20 µM) of 0.285 and a relative viability (NCI-H1793) of 0.273.
